Test results as given in US6462086B1, “Non-malignant disease treatment with Ras antagonists” (Ramot University Authority for Applied Research and …, priority 1999, dated 2002).

Columns and labels:
[1] = tested on: cancers in animals mediated by oncogenic forms of Ras; conditions: cited from earlier work
Ras [2] = assay: Ras in membranes (P100) and cytosol (S100) of cultured spleen lymphocytes (Western immunoblot); type: cell-based, mouse; conditions: for amount of insoluble (P100) Ras: 24 h, relative to FTS 0 μM = 100
Experimental: Spleen lymphocytes, obtained from six mice as described above, were pooled and plated in 10 cm dishes containing RPMI/5% FCS at a density of 2.3×10^7 cells per plate. […] Twenty-four hours later the cells were collected (pools of 2 plates for each treatment) and washed in PBS. The cells were then homogenized in homogenization buffer containing protease inhibitors. Ras was determined in total cell membranes (P100) and cytosol (S100) obtained by centrifugation ([…], 30 min, 4° C.). Briefly, 25 μg of total cellular proteins were separated by 12.5% sodium dodecylsulfate polyacrylamide gel electrophoresis (SDS-PAGE) and blotted onto nitrocellulose membranes. Immunoblotting with pan-Ras, enhanced chemiluminescense assays (ECL) and densitometric analysis were then performed as detailed previously (14).

MRL/lpr and MRL/++ mice = type: in vivo; conditions: FTS 5 mg/Kg/day
Experimental: FTS was synthesized as previously described (13). FTS was stored in chloroform, which was evaporated under a stream of nitrogen immediately before use. The powder was dissolved in absolute ethanol and diluted to the desired concentration in sterile saline made basic with NaOH. 200 μl of carrier solution containing 100 μg of FTS (5 mg/kg) were injected intraperitoneally (i.p.) into each mouse. Control solution was prepared at the same time starting with a chloroform solution.
Mice were treated once a day, 3-5 times a week starting from 6 or 10 weeks of age until 18 weeks of age.
Proteinuria was normalized in FTS-treated MRL/lpr mice as were grip strength and certain aspects of behavior in the open field.

Wistar rats = type: in vivo
Experimental: The FTS was dissolved in PBS and administered i.p. 3 times a week to rats according to their assigned groups. Four groups containing 6 rats each were treated as follows. One group received TAA 200 mg/kg i.p. twice a week and i.p. injections of PBS 3 days a week for 12 weeks (cirrhotic controls for the FTS-treated groups). A second group received TAA for 12 weeks and FTS 5 mg/kg, 3 times a week. […] The two control groups consisted of one that received PBS injections without TAA for 12 weeks (normal controls) and a group of 5 rats that received only FTS 5 mg/kg i.p. for 12 weeks to monitor the appearance of adverse effects.
In order to monitor the presence of adverse effects caused by the prolonged administration of FTS, a control group received the Ras antagonist for 12 weeks.

[3] = tested on: carotid balloon injury in Wistar rats; assay: Rat carotid balloon injury, intimal hyperplasia (morphometry); type: in vivo
Experimental: Group A: Four rats received daily intraperitoneal injections of FTS (5 mg/Kg) starting from the day of injury induction until sacrifice, 14 days later.
Group B: Four rats received daily intraperitoneal injections of control vehicle starting from the day of injury induction until sacrifice, 14 days later.
Animals were anesthetized by intraperitoneal injection of Ketamin (80 mg/Kg) and Xylazine (5 mg/Kg). […] Briefly, a balloon catheter (2F Fogarty) was passed through the external carotid into the aorta; the balloon was inflated with sufficient water to distend the common carotid artery and then pulled back to the external carotid. This procedure was repeated three times, and then the catheter was removed. After 14 days, the animals were sacrificed and the right and left carotid arteries were taken out and fixed in 4% paraformaldehyde until embedding in Paraffin. The arteries were cut in 10 um sections and stained with H&E and computer-assisted morphometric analyses were performed. The tested parameters were: intimal area, medial area, intimal/medial ratio and lumen area. Additionally, the %CSAN-N (% cross sectional area neointimal-neointamal) was calculated [IEL area-Lumen area]×100/IEL (a measure of the degree to which the IEL area is reduced by neointimal with greater normalization of the effect of changes in vessel wall size. Vasular remodeling process were further evaluated by computing the amount of plaque relative to the EEL (external elastic lamina) area.

Ras [4] = assay: Amount of Ras in spleen lymphocytes of FTS-treated SJL mice (Western immunoblot, pan-Ras Ab); type: in vivo, mouse; conditions: FTS 5 mg/kg/day, 48 h following treatment, densitometry
Experimental: Naive SJL mice received either the vehicle or FTS (10 mg/Kg, i.p., twice a day) for 2 days. The total amounts of Ras were then determined in cell lysates prepared as detailed in (14). Briefly, spleen lymphocytes of the control and of the FTS-treated mice were homogenized in homogenization buffer as detailed previously (14-15). Total cellular protein (50 μg) corresponding to 1.2×10^6 cells, as separated by 12.5% sodium dodecylsulfate polyacrylamide gel electrophoresis (SDS-PAGE) and blotted onto nitrocellulose membranes. hmmunoblotting with pan-Ras Ab (pan-Ras Ab-3, Calbiochem), enhanced chemiluminescense assays (ECL) and densitometric analysis were then performed as detailed previously (14-15). Lymphocytes of vehicle- and of FTS-treated (5 mg/kg/day) SJL mice were obtained from the spleens of mice, 48 h following treatment. The cells where then homogenized and the total amount of Ras was determined by Western immunobloting with pan Ras antibody (14). The apparent amount of Ras in the lymphocytes of the FTS-treated mice was lower than that of the control lymphocytes.

[5] = tested on: acute experimental autoimmune encephalomyelitis (EAE) in SJL/J mice; assay: Acute EAE in SJL/J mice, clinical signs; type: in vivo, mouse; conditions: compared to controls
Experimental: Induction of acute EAE was based on a modification of Bernard's protocol (13). Briefly, equal volumes of MSCH (10 mg/ml in PBS) and complete Freud's adjuvant (CFA) enriched with Mycobacterium tuberculosis H37Ra (6 mg/ml) (Difco Laboratories, Detroit, Mich.) were homogenized in a blender. For each mouse, 0.1 ml (0.5 mg) of the emulsion were injected s.c. into the four footpads. Immediately thereafter and 2 days later, mice were injected i.v. with Bordetella pertussis (2.7×10^9 organisms per mouse) (Rafa Laboratories, Jerusalem, Israel). Animals were examined daily for signs of disease. The first clinical signs appeared on day 10-12 post immunization and were scored according to the following six point scale: 0: no abnormality; 1: mild tail weakness (floppy tail); 2: tail paralysis; 3: tail paralysis and hind leg paresis; 4: hind leg paralysis or mild forelimb weakness; 5: quadriplegia or moribund state; 6: death.
FTS (as powder) was diluted in chloroform (35.8 mg/ml of FTS=0.1 M) and kept in aliquods. The content (25 μl) of one aliquod was evaporated under nitrogen and then disolved in 6 μl absolute ethanol and 7 μl of 1N NaOH; 890 μl of PBS were subsequently added. Each mouse received 0.1 ml of this solution daily (0.1 mg/mouse or 5 mg/kg) intraperitoneally (i.p.).

SMILES: CC(C)=CCC/C(C)=C/CC/C(C)=C/CSc1ccccc1C(=O)O [FTS, farnesyl thiosalicylic acid]
- reduction in cancer cell growth ([1]; cancers in animals, in some cases): greater than 90%
- body weight, specific organs size, blood count and chemistry ([1]; earlier studies in FTS-treated animals): no alteration
- doses that effectively inhibited tumor growth ([1]; previous animal studies): 3 to 10 mg/kg
- effect on normal cells ([1]; similar dosages as in cancer treatment): very little, if any, effect on normal cells
- amount of insoluble (P100) Ras (Ras [2]; FTS 12.5 μM): 84±9.8%
- amount of insoluble (P100) Ras (Ras [2]; FTS 50μM as printed): 52±16%
- levels of soluble (S100) Ras (Ras [2]; FTS 12.5 and 25 μM): no concomitant observable change
- toxicity (MRL/lpr and MRL/++ mice): no significant toxicity
- mortality and adverse effects (Wistar rats; FTS 5 mg/kg alone for 12 weeks): no mortality or major adverse effects
- survival after 12 weeks (Wistar rats; TAA+FTS, n=6): none of the rats died
- reduction of intimal area ([3]; FTS 5 mg/Kg i.p. daily 14 days vs control): 76%
- medial area ([3]; FTS 5 mg/Kg i.p. daily 14 days, control 1.2±0.14): 0.91 mm^2
- Intimal area ([3]; FTS 5 mg/Kg i.p. daily 14 days, control 1.61): 0.38 mm^2
- luminal area ([3]; FTS 5 mg/Kg i.p. daily 14 days, control 2.30): 1.45±0.34 mm^2
- %CSAN-N ([3]; FTS 5 mg/Kg i.p. daily 14 days, control 52.4±7.4): 15.5±4.3%
- reduction in the amount of Ras in lymphocytes (Ras [4]): 36±7%
- clinical course of EAE (FIG. 1) [5]: significantly ameliorated
